Measurements published in ChEMBL document CHEMBL1147166, “Structure-activity relationships of methoctramine-related polyamines as muscarinic antagonist: effect of replacing the inner polymethylene chain with cyclic moieties” (Bioorg Med Chem, 2007).
Active and inactive are the calls of the source. No cut-off for these calls is given here.

Columns and labels:
Mus musculus [1] = test: Antinociceptive activity in mouse assessed as licking latency at 0.1 ug, icv after 15 mins by hot plate method; format: functional
Rattus norvegicus = species on record: Rattus norvegicus; test: Increase in Ach release in rat parietal cortex by cerebral microdialysis test; format: functional
Mus musculus [2] = test: Antinociceptive activity in mouse assessed as licking latency at 0.1 ug, icv after 60 mins by hot plate method; format: functional
[3] = biological target: T1, Muscarinic acetylcholine receptor M2 (Homo sapiens, UniProt P08172); test: Displacement of [3H] N-methyl-scopolamine chloride from human muscarinic receptor M2 expressed in CHO cells; format: cell-based
T1 sequence (P08172 whole entry): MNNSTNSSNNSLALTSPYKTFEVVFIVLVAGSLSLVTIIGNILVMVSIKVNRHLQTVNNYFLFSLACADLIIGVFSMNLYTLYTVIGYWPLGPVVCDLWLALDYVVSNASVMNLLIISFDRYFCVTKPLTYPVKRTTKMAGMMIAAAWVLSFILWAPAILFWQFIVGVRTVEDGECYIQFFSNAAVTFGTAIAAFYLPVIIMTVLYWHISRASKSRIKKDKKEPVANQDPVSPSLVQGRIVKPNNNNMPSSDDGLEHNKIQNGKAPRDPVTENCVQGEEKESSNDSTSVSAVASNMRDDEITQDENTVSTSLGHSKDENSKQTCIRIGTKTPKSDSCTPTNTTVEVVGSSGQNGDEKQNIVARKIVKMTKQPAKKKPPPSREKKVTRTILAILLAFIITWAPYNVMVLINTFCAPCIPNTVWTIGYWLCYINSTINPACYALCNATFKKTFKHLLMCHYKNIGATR

Mus musculus [4] = test: Antinociceptive activity in mouse assessed as licking latency at 0.3 ug, icv after 60 mins by hot plate method; format: functional
Mus musculus [5] = test: Antinociceptive activity in mouse assessed as licking latency at 0.03 ug, icv after 60 mins by hot plate method; format: functional
Cholinesterase = Cholinesterase (Homo sapiens, UniProt P06276); test: Inhibition of human serum recombinant BChE after 20 mins
Mus musculus [6] = test: Antinociceptive activity in mouse assessed as licking latency at 0.3 ug, icv after 45 mins by hot plate method; format: functional
Mus musculus [7] = test: Antinociceptive activity in mouse assessed as licking latency at 1.0 ug, icv after 45 mins by hot plate method; format: functional
Mus musculus [8] = test: Antinociceptive activity in mouse assessed as licking latency at 1.0 ug, icv after 15 mins by hot plate method; format: functional
Mus musculus [9] = test: Antinociceptive activity in mouse assessed as licking latency at 0.3 ug, icv after 30 mins by hot plate method; format: functional
Mus musculus [10] = test: Antinociceptive activity in mouse assessed as licking latency at 10 ug, icv after 60 mins by hot plate method; format: functional
Mus musculus [11] = test: Antinociceptive activity in mouse assessed as licking latency at 0.01 ug, icv after 30 mins by hot plate method; format: functional
Mus musculus [12] = test: Antinociceptive activity in mouse assessed as licking latency at 10 ug, icv after 15 mins by hot plate method; format: functional
Mus musculus [13] = test: Antinociceptive activity in mouse assessed as licking latency at 0.01 ug, icv after 45 mins by hot plate method; format: functional

Chain of Cholinesterase (P06276 whole entry): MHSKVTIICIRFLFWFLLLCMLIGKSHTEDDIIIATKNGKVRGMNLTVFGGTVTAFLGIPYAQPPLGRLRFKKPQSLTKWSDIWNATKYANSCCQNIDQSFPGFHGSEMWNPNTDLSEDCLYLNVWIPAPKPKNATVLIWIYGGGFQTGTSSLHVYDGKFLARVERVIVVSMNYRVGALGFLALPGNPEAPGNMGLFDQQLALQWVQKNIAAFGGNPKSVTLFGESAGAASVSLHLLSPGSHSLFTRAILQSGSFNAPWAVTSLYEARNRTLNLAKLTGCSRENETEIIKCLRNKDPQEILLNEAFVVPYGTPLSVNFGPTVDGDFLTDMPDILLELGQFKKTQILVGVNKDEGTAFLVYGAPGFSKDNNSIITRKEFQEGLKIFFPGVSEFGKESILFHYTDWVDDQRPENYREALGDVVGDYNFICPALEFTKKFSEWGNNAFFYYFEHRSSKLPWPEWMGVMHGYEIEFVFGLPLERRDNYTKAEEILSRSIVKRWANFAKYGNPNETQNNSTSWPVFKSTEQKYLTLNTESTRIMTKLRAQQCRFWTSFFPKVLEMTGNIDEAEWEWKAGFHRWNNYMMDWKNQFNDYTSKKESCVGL

COc1ccccc1CNCCCCCCN1CCC(CCC2CCN(CCCCCCNCc3ccccc3OC)CC2)CC1
Time (Mus musculus [1]): 24.7 s
Activity (Rattus norvegicus): Active
Time (Mus musculus [2]): 18.6 s
Ki [3]: 0.00603 µM
Time (Mus musculus [4]): 15.7 s
Time (Mus musculus [5]): 16.1 s
IC50 (Cholinesterase): 10.5 µM
Time (Mus musculus [6]): 20.1 s
Time (Mus musculus [7]): 18.5 s
Time (Mus musculus [8]): 19.3 s
Time (Mus musculus [9]): 25 s
Time (Mus musculus [10]): 18.3 s
Time (Mus musculus [11]): 17.1 s
Time (Mus musculus [12]): 13.3 s
Time (Mus musculus [13]): 18.6 s
